“Also recorded” adds a separate entry of the source. Where two headings read alike, the source gives them in different places.
Columns and labels:
NIH-3T3 cells = test: Seahorse oxygen-consumption-rate assay (NIH3T3); type: cell-based, murine; settings: Mus musculus
SW480 cells = test: Seahorse oxygen-consumption-rate assay (SW480); type: cell-based; settings: Homo sapiens
Protocol: SW480 cells were seeded into a XF96 microplate (Agilent) at a density of 2×10^4 cells/well and cultured for 24 h. The cells were then incubated for 1 h at 37° C. in a non-CO2 incubator, and the plate was then loaded into a 96-well Seahorse XF analyzer (Agilent) and sequentially injected with the indicated compounds, 1 μM oligomycin A, 1 μM FCCP, or 0.5 μM rotenone/antimycin according to the Agilent Mito Stress protocol. The oxygen consumption rates (OCRs, pmol/min) for each well were measured every 5 min for a 15-min period. Basal OCR values was normalized as 100% for data analyses.

ALDH1B1 = target: T1, ALDH1B1 (Homo sapiens, UniProt P30837); test: ALDH1B1 enzyme kinetics assay (NADH fluorescence, acetaldehyde substrate); type: biochemical; set-up: made in house; host or cells: E. coli BL21 (optionally co-expressed with GroEL/GroES); settings: for ALDH1B1 inhibition / isoform selectivity (in words): enzyme kinetics assays against ALDH isoforms
T1 sequence (P30837 18-517): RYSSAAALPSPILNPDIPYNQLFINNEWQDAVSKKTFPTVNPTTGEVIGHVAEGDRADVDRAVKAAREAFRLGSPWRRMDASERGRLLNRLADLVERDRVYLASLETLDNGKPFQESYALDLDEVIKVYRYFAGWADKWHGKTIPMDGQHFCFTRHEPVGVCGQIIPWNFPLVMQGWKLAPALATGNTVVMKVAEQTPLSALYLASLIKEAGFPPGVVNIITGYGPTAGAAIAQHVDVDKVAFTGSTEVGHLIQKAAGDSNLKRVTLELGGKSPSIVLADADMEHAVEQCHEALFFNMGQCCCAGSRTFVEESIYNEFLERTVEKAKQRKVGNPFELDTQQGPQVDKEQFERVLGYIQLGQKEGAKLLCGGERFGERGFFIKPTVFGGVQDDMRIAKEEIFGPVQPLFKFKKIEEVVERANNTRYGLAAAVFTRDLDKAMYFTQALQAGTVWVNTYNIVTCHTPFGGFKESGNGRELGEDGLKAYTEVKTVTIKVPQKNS
Protocol: Cloning, expression, and purification of human recombinant ALDH1A1, ALDH1A3, ALDH2, ALDH3A1, ALDH3A2, ALDH4A1, ALDH5A1 and ALDH7A1 isozymes were conducted as described previously (Chen, C. H. et al. (2015) Proc. Natl. Acad. Sci. U.S.A. 112, 3074-3079). Human ALDH1A2 (Origene, SC109995) and ALDH1B1 (T. Hurley, Indiana University) plasmids were cloned into the pET-15b expression vector (Novagen, 69661-3) containing an N-terminal hexahistidine tag. The mitochondria-targeting sequence of ALDH1B1 was also removed. For protein expression without chaperones, the pET-15b based plasmids were transformed into competent BL21 E. coli cells, which were subsequently grown in 1 L of Luria-Bertani medium containing 100 μg/mL ampicillin at 37° C. Once the OD600 value reached 0.6, the culture was transferred to 16° C. and 0.5 mM isopropyl β-d-1-thiogalactopyranoside was introduced to induce protein expression overnight. The bacteria were then pelleted by centrifugation (3000×g, 4° C. for 30 rain) and harvested. 40 mL BugBuster Master Mix buffer (MilliporeSigrna) containing a protease inhibitor cocktail (cOmplete; Roche) was added, and the cells were lysed by mechanically rolling the suspension at room temperature for 25 min. The lysate was centrifuged (16000×g, 4° C. for 30 min), and the soluble fraction was collected and mixed with 2 mL of Ni-NTA Superflow resin (Qiagen). After the mixture was avowed to rock at 4° C. for 1 h, it was used to create a 10-mL gravity column, which was sequentially treated with 40 mL of wash buffer 1 (20 mM sodium phosphate, 500 mM NaCl, 1 mM DTT, 20 mM imidazole, 5% glycerol, pH 7.4) and 25 mL of wash buffer 2 (20 mM sodium phosphate, 500 mM NaCl, 1 mM DTT, 40 mM imidazole, 5% glycerol, pH 7.4). The hexahistidine-tagged protein was then recovered by treated the column with 5 mL elution buffer (20 mM sodium phosphate, 500 mM NaCl, 1 mM DTT, 400 mM imidazole, 5% glycerol, pH 7.4) and collecting 500-μL fractions. The protein concentration for each fraction was measured (500 μL elution volume was collected as one fraction and was immediately mixed with 500 μL glycerol. The protein concentration for each fraction was measured (600 nm Protein Assay Reagent; Thermo Fisher Scientific), and protein-containing fractions were diluted with an equal volume of glycerol and stored at −80° C. Samples from each step were also collected for SDS-PAGE gel analysis. For ALDH1B1 protein co-expression with chaperones, pET-15b-ALDH1B1 and GroEL/GroES (Addgene, plasmid pBB541) plasmids were co-transformed into competent BL21 E. coli cells, which were subsequently grown in 1 L of Luria-Bertani medium containing 100 μg/mL ampicillin and 50 μg/mL spectinomycin at 37° C. The hexahistidine-tagged ALDH1B1 protein was then expressed and purified as described above.
To evaluate compound activities against ALDH isoforms, reaction mixtures consisting of enzyme assay buffer (100 mM sodium phosphate, 1 mM MgCl2, pH 8.0) and 0.1% DMSO, 1 mM β-mercaptoethanol, 1 mM NAD^+, and the bacterially expressed protein were prepared in white opaque 96-well assay plates (100 μL/well, flat-bottom and non-treated; Corning Costar). 5 μg/mL ALDH enzyme was used for single-dose (1, 10, 50 μM) compound test, and 1 μg/mL ALDH enzyme was used for IC50s determination. Acetaldehyde was then added to each well to achieve an initial substrate concentration of 1 mM, and the resulting enzymatic activity was measured based on NADH fluorescence. The fluorescence signal was read over the course of 10 min on a SpectraMax M2e microplate reader (340-nm excitation and 460-nm emission; Molecular Devices) operated by SoftMax Pro software. Compound activities were normalized to a DMSO control, and dose-response inhibition curves were fitted with four-parameter non-linear regression using Prism software. […]

[1] = 1 μg/mL enzyme, 1 mM acetaldehyde, 1 mM NAD+, read-out: ALDH1B1(in vitro) IC50

| SMILES | IC50 (NIH-3T3 cells) | IC50 (SW480 cells) | IC50 (ALDH1B1; [1]) | potency against ALDH1B1 relative to imidazolium 2 (and 8) (ALDH1B1; dose-response, FIG. 15 panel d) | ALDH1B1 inhibition / isoform selectivity (in words) (ALDH1B1) | IC50 (ALDH1B1; FIG. 2, panel B, read-out: ALDH1B1 IC50 (dose-response experiments, text)) | activity against other ALDH1 enzymes relative to ALDH1B1 (ALDH1B1; dose-response, ALDH1A1, ALDH1A3, ALDH1B1) | mode of ALDH1B1 inhibition with respect to NAD+ (ALDH1B1; varying NAD+, Lineweaver-Burk) | mode of ALDH1B1 inhibition with respect to acetaldehyde (ALDH1B1; varying acetaldehyde, Lineweaver-Burk) |
| --- | --- | --- | --- | --- | --- | --- | --- | --- | --- |
| COc1ccccc1-c1ccc(-c2cn(-c3ccccc3OC)c3[n+]2CCCCC3)cc1.[Br-] [Imidazolium 8] | 130 nM | 340 nM | 47 nM | comparable potencies | ALDH1B1-specific inhibitors; also recorded: enhanced specificity for ALDH1B1 in comparison to imidazolium 2 |  |  |  |  |
| COc1ccccc1-n1cc(-c2ccccn2)[n+]2c1CCCCC2 [Compound 63] |  |  |  |  | inactive against ALDH1B1 |  |  |  |  |
| COc1ccccc1-n1cc(-c2ccc(-c3ccccc3)cc2)[n+]2c1CCCCC2 [Imidazolium 2] | 180 nM | 540 nM | 42 nM |  | most potent | 57 nM | over an order of magnitude weaker activity against other ALDH1 enzymes | uncompetitive | non-competitive |
| COc1ccccc1C1=CN(c2ccc(-c3ccccc3)cc2)C2=NCCCCN12 [HPI-273] | 190 nM |  | 47 nM |  |  |  |  |  |  |
| COc1ccccc1C1=CN(c2ccc(-c3ccccc3)cc2)C2=NCCCN12 [STL5-T-0002] | 850 nM |  | 120 nM |  |  |  |  |  |  |

Reference: patent US12570661B2, “Isoform-specific aldehyde dehydrogenase inhibitors” (The Board of Trustees of the Leland Stanford Junior …, priority 2020, dated 2026)
